Like-named read-outs stand apart in the source and are kept apart here.
How the values were obtained:
[1] = target: T1, EG3 (SEQ ID NO: 12) ELIC-GlyR (EG) Cl- channel (Dickeya chrysanthemi, UniProt P0C7B7, INS163G); assay: Two-electrode voltage clamp, amine agonist activation of the EG channel in Xenopus oocytes; type: cell-based, Erwinia chrysanthemi / human; conditions: for Hill slope / Hill coeff.: agonist dose response on EG channel
T1 construct: expressed in transfected cells; host or cells: Xenopus laevis oocytes injected with construct DNA in the pAAV vector
Protocol: (§1) For pH measurements, 10 mM MES was added. […] Non-linear regressions were performed using Prism software (Graphpad). […] (FIG. 2).

[2] = tested on: CFA-induced inflammation of the hind paw; assay: Plantar (Hargreaves) test of thermal hypersensitivity after CFA-induced inflammation; type: in vivo, rat
Protocol: The plantar sensitivity to heat-induced pain was examined using a plantar algesia meter (Model 390G; IITC Life Science, Woodland Hills, Calif.; active intensity, 23%). Rats were placed inside a plastic divider on a constant-temperature glass plate and acclimated to the environment for at least 20 minutes before testing. A heat source was focused directly onto the plantar surface of the hind paw. Once activated, the apparatus applied a continuous heat stimulus to the plantar surface to evoke a distinctive reflex of paw withdrawal. The rats were examined with at least a five-minute interval between consecutive tests. Paw withdrawal latencies were recorded and averaged for each hind paw. A 22-second automatic cut-off time was set to prevent tissue damage from heating.

[3] = prescription drug for cystinosis; cited from earlier work
[4] = tested on: CFA-induced inflammation of the hind paw; conditions: for mechanical hypersensitivity, EG channel not activated: EG rats before cysteamine versus control group
Protocol: In one experiment, 8 rats were assigned to two groups to receive either EG expression plasmid or the control plasmid […] the EG insertion. […] Thereafter, inflammation was induced in the same hind paw by complete Freund's adjuvant (CFA) injection (50 μl). Hypersensitivity was measured using a Von Frey pain-testing device after CFA injection. This test measures the maximum force applied to the paw through a flexible thin wire before paw withdrawal. Note that this version of the channel design, EG3 (SEQ ID NO: 12), requires a small agonist molecule (propylamine or cysteamine) to open the Cl^− channels.
Rats were randomly assigned to two groups to receive a subcutaneous injection of 1 mg (in 200 μl) purified EG expression vector into the left hind paw or the control plasmid vector without the EG insertion in an identical fashion. […] After CFA injections, the rats were tested both before and after cysteamine administration to assess the specific analgesic effects from the expressed EG channels.
The Institutional Animal Care and Use Committee at the University of Pittsburgh approved all animal procedures used in the studies. Male Sprague-Dawley rats, weighing 220-250 g, were obtained from Harlan Laboratories, allowed to acclimate to the housing and experimental facilities, evaluated for baseline behavioral response to thermal and mechanical pain, and then subjected to inflammatory pain model and behavioral testing. The expression vectors, 1000 μg in a volume of 200 μl phosphate-buffered saline (PBS), were injected directly into the plantar of the left hind paw with a 27-gauge needle under brief 2.5% isoflurane anesthesia. One week after the vector injection, 50 μl of CFA (Sigma, St. Louis, Mo., USA) were injected into the same hind paw subcutaneously with a 27-gauge needle under brief isoflurane anesthesia, as described previously {Fraser, 2000 #180}.
Animals were placed above a grid floor inside a plastic divider. Thresholds to the mechanical pressures applied directly onto the plantar by a blunt metal filament of 100 mm in length and 0.38 mm in diameter were assessed using a custom-made von Frey apparatus. The apparatus uses a high precision load cell (100 g capacity and 0.01 g accuracy) interfaced with a PASPORT load cell amplifier (Model PS-2205, PASCO Scientific, Roseville, Calif.) for continuously measuring the forces applied to the plantar through the metal filament. The DataStudio software from PASCO Scientific was used to record the entire time course of the applied forces and the maximum force immediately before the paw withdrawal. The threshold values were determined as a mean of at least three separate measurements under each testing condition.
Both von Frey and plantar tests were conducted using the schedule as depicted in FIG. 3a. On each testing day after CFA injection, behavioral evaluations were repeated before and at least 15 min after cysteamine administration. Cysteamine (500 μl of 100 mM solution in PBS) was injected subcutaneously elsewhere on the body to prevent tissue damage from repeated injections.

[5] = target: T2, EGRAFY mutant (R91A, F188Y; SEQ ID NO: 15) (Dickeya chrysanthemi, UniProt P0C7B7, F187Y/INS163G/R91A); assay: Two-electrode voltage clamp, amine agonist activation of the EGRAFY mutant in oocytes; type: cell-based, Erwinia chrysanthemi / human
T2 construct: expressed in transfected cells; host or cells: Xenopus laevis oocytes
T2 sequence (P0C7B7 other isoform, or with tags, fused parts or gaps R91A/INS163G/F187Y): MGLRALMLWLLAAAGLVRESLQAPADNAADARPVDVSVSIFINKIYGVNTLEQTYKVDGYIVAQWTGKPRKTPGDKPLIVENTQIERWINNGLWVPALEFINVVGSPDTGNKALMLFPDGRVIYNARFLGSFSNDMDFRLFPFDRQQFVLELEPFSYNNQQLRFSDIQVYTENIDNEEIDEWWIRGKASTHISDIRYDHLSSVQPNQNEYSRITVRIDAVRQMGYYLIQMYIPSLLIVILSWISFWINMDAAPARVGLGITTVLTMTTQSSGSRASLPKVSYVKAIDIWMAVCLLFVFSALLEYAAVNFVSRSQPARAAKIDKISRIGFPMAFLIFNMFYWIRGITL
Protocol: as §1

ELIC-GlyR chimeras = assay: Cysteamine response of ELIC-GlyR chimera constructs in Xenopus oocytes; type: cell-based, Erwinia chrysanthemi / human
Description: The EG chimera was constructed by fusing the extracellular domain of ELIC with the transmembrane domain of the α1 subunit of human GlyR. Five constructs were made to test the importance of interface elements at the fusion junction (pre-TM1), the loop between transmembrane helices 2 and 3 (TM23), and C-terminus (Figure S1 a). In addition, the long cytoplasmic loop was removed to facilitate homogeneous expression (i.e., “VSR . . . KID” was replaced with “[…]”). All designed constructs expressed functional channels in Xenopus oocytes and were responsive to the agonist cysteamine. The constructs mostresponsive to cysteamine, EG and EGd (Figure S1 b), included a native GlyR TM23 loop and an ELIC C-terminus (Figure S1). The fusion junction had less effect on cysteamine response (compare EG and EGd).

EG channel = EG channel (Dickeya chrysanthemi, UniProt P0C7B7, INS163G)
Protocol: Non-linear regressions were performed using Prism software (Graphpad).

| Molecule | EC50 [1] [µM] | Hill slope / Hill coeff. [1] | thermal hypersensitivity after cysteamine administration ([2]; control plasmid rats (no EG), after CFA) | thermal hypersensitivity after cysteamine administration ([2]; rats expressing EG, after CFA) | safety in clinical use [3] | mechanical hypersensitivity / pain scores after cysteamine administration ([4]; control plasmid rats (no EG), after CFA, listed as Cysteamine) | increase in potency in the EGRAFY mutant as compared to the EG channel [5] | Hill coeff. ([5]; EGRAFY mutant, n=6) | cysteamine response of the construct (ELIC-GlyR chimeras) | hypersensitivity to heat-induced pain, EG channel not activated ([2]; EG rats before cysteamine versus control group) | latency to paw withdrawal, EG injection compared to the control ([2]; after CFA, EG n=4, control n=5) | shift in reversal potential upon replacing Na+ with choline (EG channel) | shift in reversal potential upon replacing Cl- with gluconate (EG channel; 130 mM external solution) [mV] | mechanical hypersensitivity, EG channel not activated ([4]; after CFA) | mechanical hypersensitivity, EG channel not activated ([4]; after CFA, listed as EG) | mechanical hypersensitivity, EG channel not activated ([4]; after CFA, listed as EG channels) | basal mechanical and thermal thresholds ([4]; rat, in vivo) |
| --- | --- | --- | --- | --- | --- | --- | --- | --- | --- | --- | --- | --- | --- | --- | --- | --- | --- |
| NCCS [cysteamine] | 960 ± 120 | 1.1±0.1 | not inherently an analgesic | significantly attenuated | safe with no psychoactive effects | no analgesia | – | – | – | – | – | – | – | – | – | – | – |
| CCCN [propylamine] | 740 ± 110 | 0.5±0.04 | – | – | – | – | ~3 orders of magnitude | 0.98±0.07 | – | – | – | – | – | – | – | – | – |
| EG channel: ELIC extracellular domain fused to human GlyR α1 transmembrane domain; amine-gated Cl- channel, delivered as expression plasmid in vivo (protein, Engineered Chloride Channel Receptor, ELIC extracellular domain fused to human GlyR α1 transmembrane domain; amine-gated Cl- channel, delivered as expression plasmid in vivo) MGLRALMLWLLAAAGLVRESLQAPADNAADARPVDVSVSIFINKIYGVNTLEQTYKVDGYIVAQWTGKPRKTPGDKPLIVENTQIERWINNGLWVPALEFINVVGSPDTGNKRLMLFPDGRVIYNARFLGSFSNDMDFRLFPFDRQQFVLELEPFSYNNQQLRFSDIQVYTENIDNEEIDEWWIRGKASTHISDIRYDHLSSVQPNQNEFSRITVRIDAVRQMGYYLIQMYIPSLLIVILSWISFWINMDAAPARVGLGITTVLTMTTQSSGSRASLPKVSYVKAIDIWMAVCLLFVFSALLEYAAVNFVSRSQPARAAKIDKISRIGFPMAFLIFNMFYWIRGITL | – | – | – | – | – | – | – | – | mostresponsive | partially alleviated | significant attenuation of thermal hypersensitivity | no significant shift | 50 | did not produce measurable changes | no measureable effects | little measurable changes | neither EG nor the control plasmids caused measureable changes |

From patent US9624288B2, “Engineered receptors and their use” (University of Pittsburgh—Of the Commonwealth System of …, priority 2012, dated 2017)
